Experimental data: patent US20230321105A1, “CELL SIGNAL DETECTION AND MODULATION IN DISEASE” (Washington University, priority 2022, published 2023)

Columns and labels:
glioma = conditions: STAT3 inhibitor and irradiation vs either treatment alone; glioma preclinical study; cited from earlier work
Serpinb3a = experiment: Knockdown of Serpinb3a in tumors by qPCR; assay type: in vivo, mouse; conditions: siB3-treated LL2/B3a tumors; average
Protocol: For xenograft models, female athymic nude mice aged 6-7 weeks old (Charles River) were injected subcutaneously with 5×10^6 Caski/Ctrl or Caski/B3 cells suspended in serum-free IMDM and 50% Matrigel Basement Membrane Matrix (Corning) to a final volume of 100 μl on their flank. For immunocompetent models, female C57/BL6 mice aged 7-8 weeks (Charles River) were injected subcutaneously with 5×10^5 LL2/Ctrl or LL2/B3a cells suspended in 100 μl of PBS into the right flank. To deplete myeloid cells, mice were treated with anti-CD11b antibody (Ultra-LEAF purified anti-mouse CD11b, Biolegend) or isotype IgG2b as control (Ultra-LEAF purified rat IgG2b, Biolegend). […] Tumor volume was measured twice weekly and calculated by (length×width2)/2. […]
Lipofectamine RNAiMAX (Thermo Fisher) was used for STAT1 siRNA (ID: SASI_Hs02_00343387, SASI_Hs01_00098937, Sigma), STAT3 siRNA (ID: SASI_Hs01_00121206, SASI_Hs01_00061860, Sigma), and negative control siRNA (SIC001, Sigma) transfection, according to the manufacturer's instructions. […] Quantitative polymerase chain reaction (qPCR) was performed using PowerUp SYBR green PCR Master Mix (Applied Biosystems) and the Applied Biosystems 7900 Fast real-time PCR system and software. Each sample was performed in triplicate, gene expression levels were normalized to GAPDH, and fold changes were calculated using the ΔΔCt method. […]

LL2/B3a tumors = LL2/B3a tumors treated with Serpinb3a siRNA with or without 10 Gy RT; assay type: in vivo, C57/BL6 mice
Protocol: Single-cell suspensions were blocked with either Human TruStain FcX Solution (422301, Biolegend) or mouse TruStain FcX PLUS (anti-mouse CD16/32) Antibody (S17011E, Biolegend) to avoid nonspecific Fc receptor binding and stained with LIVE/DEADFixable Dead Cell Stain Kit (MACS) to exclude dead cells. For surface staining, cells were incubated with the appropriate antibodies for 30 min at 4° C. Intracellular cytokine and nuclear staining was performed after surface staining using Cyto-Fast Fix/Perm Buffer Set and True-Nuclear Transcription Factor Buffer Set, respectively (BioLegend). Data analysis including viSNE and FlowJo plugin FlowSOM were performed on FlowJo v.10 (TreeStar). A range of 20,000 to 60,000 live cells was acquired and individual flow cytometry data from each group were combined into a single data file for generating viSNE. Color-coded subpopulations were gated by pre-defined markers for each immune cell type and overlaid to the viSNE plots for total CD45+ cells from tumors. All flow cytometry gating plots, histograms, and statistics were generated on FlowJo.
For xenograft models, female athymic nude mice aged 6-7 weeks old (Charles River) were injected subcutaneously with 5×10^6 Caski/Ctrl or Caski/B3 cells suspended in serum-free IMDM and 50% Matrigel Basement Membrane Matrix (Corning) to a final volume of 100 μl on their flank. For immunocompetent models, female C57/BL6 mice aged 7-8 weeks (Charles River) were injected subcutaneously with 5×10^5 LL2/Ctrl or LL2/B3a cells suspended in 100 μl of PBS into the right flank. To deplete myeloid cells, mice were treated with anti-CD11b antibody (Ultra-LEAF purified anti-mouse CD11b, Biolegend) or isotype IgG2b as control (Ultra-LEAF purified rat IgG2b, Biolegend). Antibodies were administered through intraperitoneal injection at the initial dose of 300 μg in 150 μl PBS on day 10 post-tumor inoculation, and a subsequent dose of 150 μg in 100 μl PBS every three days. To knock down Serpinb3a, mice received either mSerpinb3a siRNA (5′-ACAUCGAAUUUAACUUCAUtt-3′; 5′-AUGAAGUUAAAUUCGAUGUtt-3′; ID:s73336, Thermo) or control siRNA (Ambion in vivo negative control #1 Thermo) complexed with Invivofectamine 3 (Thermo Fisher) as per manufacturer's protocol. Mice received three intratumoral injections of 10 μg siRNA on days 9, 11, and 13 post-tumor inoculation before radiation treatment performed on day 14. On days 16 and 19, mice received 20 μg siRNA via intraperitoneal injection. For radiation treatment, mice were randomized to receive sham or 10Gy RT using the Xstrahl Small Animal Radiation Research Platform (SARRP) 200 (Xstrahl Life Sciences). Tumor volume was measured twice weekly and calculated by (length×width2)/2. For tissue dissociation, tumors were manually dissected and digested with 1 mg/ml Collagenase, 0.5 mg/ml hyaluronidase, and 10 mg/mL DNase I type IV (Sigma), and transferred to a tissue disaggregator (Medicon, BectonDickinson) using a CTSV (Medimachine II, BectonDickinson) and tissue homogenates were filtered through a 100 μm strainer. Spleens were dissociated by being pressed through a 70 μm filter. Animal work was approved by the Washington University Institute Institutional Animal Care and Use Committee (Protocol #20-0470).
T cells isolated using MojoSort mouse CD3 T cell isolation kit (Biolegend) were labeled with CellTrace violet and activated with CD3/CD28 Dynabeads (Thermo Fisher) for 4 days to evaluate proliferation. To examine TNF and IFNr, T cells were stimulated with 500× Cell Activation Cocktail containing 40.5 μM phorbol-12-myristate 13-acetate (PMA) and 669.3 μM ionomycin (Biolegend) in the presence of 5 μg/mL BFA (Biolegend) for 5 h and stained with surface/intracellular markers for FACS analysis.
Cell culture supernatant was collected at 48 h after fresh media was added to the adherent cells in a monolayer. Cell lysates were prepared using NP-40 buffer (Alfa Aesar). […]

[1] = test system: pSTAT3 (Tyr705) and CD11b; experiment: Immunohistochemistry of mouse tumors treated with Serpinb3a siRNA; assay type: in vivo
Protocol: Pretreatment serum SCCA was evaluated by ARUP National Reference Laboratory (Salt Lake City, UT, USA) using ELISA, and tissue microarrays were generated from untreated human tumor specimens. TMA sections were sent to HistoWiz Inc for IHC staining for CD11b (1:100, Abcam ab224800) and IHC for pSTAT3 (1:200, Sigma SAB4300033) was performed by Washington University AMP Core Labs. Mouse tumor sections were stained with pSTAT3 (1:150, Invitrogen PA5-121259) and CD11b (1:500, Invitrogen PA5-79532), using a Pierce peroxidase IHC detection kit (Thermo Fisher). QuPath V0.3.2 software was used for automated analysis using surface and cytoplasmic staining to determine the percent cells positive for CD11b. The staining scores for pSTAT3 were evaluated by the pathologist and calculated by (% of positively stained tumor cells x staining intensity ranged from 0-3). Values from at least two cores from each sample were considered valid and an average score was taken.

Row | Compound | survival (glioma) | decrease of Serpinb3a RNA expression in tumors (Serpinb3a) [%] | PD-1 in CD8+ T cells (LL2/B3a tumors; RT/siB3 vs RT/siNC) | tumor growth inhibition (LL2/B3a tumors; combination of Serpinb3a knockdown with 10 Gy RT (RT/siB3)) | tumor growth (LL2/B3a tumors; sham siB3-treated vs sham siNC-treated tumors) | CTLA-4 in CD8+ T cells (LL2/B3a tumors; sham/RT siB3 vs siNC tumors) | ratio of CD8/Treg (LL2/B3a tumors; sham/RT siB3 vs siNC tumors) | CD8+ T cells in tumors (LL2/B3a tumors; sham/siB3 tumors) | M-MDSCs, PMN-MDSCs, and M2 macrophages in tumors (LL2/B3a tumors; sham/siB3 vs sham/siNC tumors, flow cytometry) | expression of CXCL1, and S100A8/A9 in tumor homogenates (LL2/B3a tumors; sham/siNC vs. sham/siB3, ELISA) | proliferative capacity of CD8+ T cells upon anti-CD3/28 stimulation (LL2/B3a tumors; siB3 tumor-derived vs siNC tumor-derived) | expression of granzyme B and perforin in CD8+ T cells (LL2/B3a tumors; siB3 tumors) | expression of granzyme B and perforin in CD8+ T cells (LL2/B3a tumors; siB3 tumors with radiation treatment) | pSTAT3 expression (immunostaining of pSTAT3(Tyr705)) ([1]; LL2/B3a+siB3 tumors) | CD11b+ myeloid cell infiltration ([1]; Serpinb3a knockdown tumors)
1 | C[C@H](NC(=O)/C(C#N)=C/c1cccc(Br)n1)c1ccccc1 [WP1066] | enhanced survival |  |  |  |  |  |  |  |  |  |  |  |  |  | 
2 | siB3: mSerpinb3a siRNA 5′-ACAUCGAAUUUAACUUCAUtt-3′; 5′-AUGAAGUUAAAUUCGAUGUtt-3′; ID:s73336, Thermo, complexed with Invivofectamine 3 (sense ACAUCGAAUUUAACUUCAUTT; antisense AUGAAGUUAAAUUCGAUGUTT; Invivofectamine 3 complex, further chemistry not given here) |  | 65 | lower | more significant tumor growth inhibition | Reduced tumor growth | lower | higher ratio | increase | significant reduction | significant decrease | markedly higher proliferative capacity | increased expression | further enhanced | significantly reduced | reduced
